The source of these data is patent US20220259202A1, “1-(4-(AMINOMETHYL)BENZYL)-2-BUTYL-2H-PYRAZOLO[3,4-C]QUINOLIN-4-AMINE DERIVATIVES AND RELATED COMPOUNDS AS TOLL-LIKE RECEPTOR (TLR) 7/8 AGONISTS, AS WELL AS ANTIBODY DRUG CONJUGATES THEREOF FOR USE IN CANCER THERAPY AND DIAGNOSIS” (SUTRO BIOPHARMA, INC., priority 2019, published 2022).

One series concerns the target T1, mouse TLR7 (Mus musculus, UniProt P58681).
T1 construct: host or cells: HEK293
T1 sequence (P58681 27-1050): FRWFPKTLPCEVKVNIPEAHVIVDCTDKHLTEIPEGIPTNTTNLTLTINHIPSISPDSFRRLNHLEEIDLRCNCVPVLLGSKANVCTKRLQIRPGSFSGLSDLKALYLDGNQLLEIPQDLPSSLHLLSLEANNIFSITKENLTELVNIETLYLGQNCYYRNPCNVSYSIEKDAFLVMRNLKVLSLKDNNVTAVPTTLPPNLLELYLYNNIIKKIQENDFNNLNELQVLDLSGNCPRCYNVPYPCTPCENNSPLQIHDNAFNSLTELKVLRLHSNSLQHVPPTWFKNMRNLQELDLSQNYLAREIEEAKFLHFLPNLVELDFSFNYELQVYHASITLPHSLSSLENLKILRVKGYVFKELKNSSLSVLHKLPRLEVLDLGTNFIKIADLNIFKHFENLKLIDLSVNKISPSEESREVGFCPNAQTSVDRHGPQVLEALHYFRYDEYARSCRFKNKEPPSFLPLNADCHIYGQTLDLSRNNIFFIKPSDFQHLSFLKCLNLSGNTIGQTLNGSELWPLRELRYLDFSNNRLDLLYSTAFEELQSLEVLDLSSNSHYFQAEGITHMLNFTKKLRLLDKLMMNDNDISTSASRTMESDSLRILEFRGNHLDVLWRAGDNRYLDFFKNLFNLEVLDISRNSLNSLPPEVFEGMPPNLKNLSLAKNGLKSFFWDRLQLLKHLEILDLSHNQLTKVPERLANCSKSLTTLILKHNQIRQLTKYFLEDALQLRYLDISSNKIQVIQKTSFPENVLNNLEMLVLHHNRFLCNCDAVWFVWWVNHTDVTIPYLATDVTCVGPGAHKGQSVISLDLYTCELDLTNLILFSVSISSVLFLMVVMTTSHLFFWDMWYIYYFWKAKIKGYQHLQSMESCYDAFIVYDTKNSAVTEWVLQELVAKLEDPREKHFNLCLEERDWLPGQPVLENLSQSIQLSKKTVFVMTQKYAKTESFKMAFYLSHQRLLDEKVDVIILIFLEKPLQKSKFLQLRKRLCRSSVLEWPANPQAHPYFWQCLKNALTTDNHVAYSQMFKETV
The experiment in a line: HEK293 SEAP reporter assay, mouse TLR7 (Biological Example 1). Format: cell-based. As to conditions: HEK293-mouseTLR7 reporter cells, 4 hrs; read-out: mTLR7 EC50. The method, then:
In this example, the activity of the TLR7 agonists to activate human TLR7, hTLR7 (or human TLR8, hTLR8, or mouse TLR7, mTLR7) pathway was evaluated on HEK293 reporter cells transfected with human TLR7 (or mouse TLR7 or human TLR8) and an inducible SEAP (secreted embryonic alkaline phosphatase) reporter gene. The SEAP reporter gene is placed under the control of the IFN-β minimal promoter fused to five NF-κB and AP-1-binding sites. Stimulation with a TLR7 agonist activates NF-KB and AP-1 which induces the production of SEAP. Levels of SEAP was determined with HEK-Blue Detection medium.
HEK293-humanTLR7, HEK293-mouseTLR7 and HEK293-humanTLR8 reporter cell lines were purchased from Invivogen and cell lines were maintained in manufacture recommended culture medium with required supplemental antibiotics. On the day of assay, the cells were harvested with Accutase and counted by the Vi-CELL Cell Viability Analyzers. Cells were re-suspended in HEK blue detection medium and a total of 10000 cells were seeded in each well of a 384-well flat bottom plate. Serial dilutions of TLR7 agonists free drugs (1:3 serial dilution starting from 5 μM) was added into treatment wells. Assay plates were cultured at 37° C. in a CO2 incubator for […]. HEK-Blue™ Detection medium changes to a purple/blue color in the presence of secreted SEAP, which can be detected by spectrophotometry at 620-655 nm. […]

A further series relates to KB cells. In words: In vitro cytotoxicity, cell proliferation assay (Cell Titer-Glo). Format: cell-based. To be noted: concentration up to 1 μM, 120 hrs. The method, then:
The cytotoxicity of Compound 1 was tested in a cell proliferation assay on KB cells. KB cells were obtained from ATCC and were maintained in Ham's F-12: high glucose DMEM (50:50) (Corning) supplemented with 10% heat-inactivated fetal bovine serum (Corning), 1% Penicillin/Streptomycin (Corning) and 2 mmol/L-glutamax (Thermo Fisher Scientific). One day before the assay, KB cells were harvested with Accutase and a total of 625 cells were seeded in each well of a 384-well flat bottom white polystyrene plate. Compound 1 was formulated at 2-fold starting concentration in the cell culture medium. Serial dilutions of Compound 1 (1:4 serial dilution starting from 1000 nM) was added into treatment wells. Assay plates were cultured at 37° C. in a CO2 incubator for 120 hrs before assay. For cell viability measurement, 30 μL of Cell Titer-Glo® reagent (Promega Corp. Madison, Wis.) was added into each well, and plates were processed as per product instructions. Relative luminescence was measured on an ENVISION® plate reader (Perkin-Elmer; Waltham, Mass.). Relative luminescence readings were converted to percent viability using untreated cells as controls. Data was fitted with non-linear regression analysis, using a log(inhibitor) vs. response-variable slope, 4-parameter fit with GraphPad Prism (GraphPad v 5.0, Software; San Diego, California).
(In general: Cellular ATP, detected with luciferase, serves as a proxy for viable cell number.)

As for `CCCCn1nc2c(N)nc3ccccc3c2c1Cc1ccc(CN)cc1` [Compound 1, 1-(4-(aminomethyl)benzyl)-2-butyl-2H-pyrazolo[3,4-c]quinolin-4-amine], the 50% effective concentration (EC50) on mouse TLR7 was 29.1 nM. Also, the “cytotoxicity on KB cells” value with KB cells is “did not show any cytotoxicity”.

What is called EC50 is the concentration needed to bring the measured effect to its halfway point.
